Experimental data: publication PMC7824897, “Selection of the First ^99mTc-Labelled Somatostatin Receptor Subtype 2 Antagonist for Clinical Translation—Preclinical Assessment of Two Optimized Candidates” (Pharmaceuticals, 2020)
Values belong to the molecule of their own block, whether it stands above or below them. Where a SMILES comes first, the peptide text is derived from it. Bridges are numbered along the chain shown (N, C = ends). [ ]: non-standard residue; d: D form. The star is where a group is joined. N4 = 6-carboxy-1,4,8,11-tetraazaundecane chelator, NCCNCC(CNCCN)C(=O)*; dPhe(4-NHCONH2) = NC(=O)Nc1ccc(C[C@@H](N)C(=O)O)cc1; Phe(4-Cl) = N[C@@H](Cc1ccc(Cl)cc1)C(=O)O; X1 = NCCNCC(CNCCN)C(=O)*

Legend:
[1] = in vivo; settings: female, mouse, 20 pmol, total radioactivity
[2] = assay type: physicochemical; settings: pH 7.4
Description: Determination of the distribution coefficient (log D) was performed by the shake-flask method in 1:1 mixture of octanol/Phosphate buffered saline (PBS). Then, 50 µL of [^99mTc]Tc-TECANT-1 or [^99mTc]Tc-TECANT-2 solution was diluted up to 500 µL with PBS (pH 7.4; 8 mM phosphate). Next, 20 µL of this solution was added to six eppendorf tubes, each containing 500 µL octanol and 480 µL PBS. The samples were vortexed for 15 min at 1400 rpm followed by centrifugation for 2 min at 4500 rpm. Aliquots of 100 µL from each phase were taken and measured in a γ-counter. The log D was calculated as the average of the logarithmic values (n = 3, six technical replicates) of the ratio between the radioactivity in the octanol and the PBS phase.

[3] = biological target: T1, HEK-SST2 cells (human SST2 receptor) (Homo sapiens, UniProt P30874); assay: Internalization and cell-surface binding in HEK-SST2 cells; assay type: cell-based
T1 construct: expressed in transfected cells; host or cells: HEK293 (HEK-SST2), provided by Prof; Stefan Schulz, Jena University Hospital
T1 sequence (P30874 whole entry): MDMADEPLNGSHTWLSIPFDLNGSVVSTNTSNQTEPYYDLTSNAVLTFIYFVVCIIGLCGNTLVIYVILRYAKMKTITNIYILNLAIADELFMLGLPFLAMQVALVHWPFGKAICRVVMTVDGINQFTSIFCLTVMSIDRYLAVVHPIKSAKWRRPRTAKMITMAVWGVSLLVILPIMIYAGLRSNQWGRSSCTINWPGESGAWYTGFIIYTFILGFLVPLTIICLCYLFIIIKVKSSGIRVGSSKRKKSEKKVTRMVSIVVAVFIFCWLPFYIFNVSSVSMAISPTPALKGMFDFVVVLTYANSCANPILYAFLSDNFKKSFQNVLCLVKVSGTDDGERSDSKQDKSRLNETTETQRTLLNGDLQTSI

[4] = biological target: T1, HEK-SST2 cells (human SST2 receptor); assay: Dissociation of cell-surface bound radiotracer with or without competitor; assay type: cell-based
[5] = set-up: species or system human
Text: To account for various possible locations of the tumour, we used two S-values. One was the value for the liver and is representative for the liver lesions. Other was the “average abdominal S-value”, which was the average S-value for the following organs: stomach, liver, gallbladder, spleen, pancreas, small intestine, kidneys, large intestine, and adrenal glands. Estimated dose to various organs, average total body dose and effective dose are summarized in Table 3 for both radiotracers and two typical tumour locations.
Dosimetric calculations were based on the biodistribution of [^99mTc]Tc-TECANT-1 and [^99mTc]Tc-TECANT-2 (Table 3). […] Percent of injected activity per organ in a human model was evaluated according to the animal data extrapolation model:(2) (%IA/organ)human=[(%IA/g)mouse×Mmouse(g)]×(m(g)/M(kg))human
Here m is the organ mass and M is the total body weight of mouse or human. Average total weight of the mouse was measured, while human phantom has the total weight of 73 kg. The %IA/g and %IA/organ is the percentage of the injected activity concentration (i.e., per gram of tissue) and per organ, respectively. For the tumour, we assumed that the percent of injected activity uptake into the tumour is the same for mouse and human.
Subsequently, percentage of the injected activity per organ was folded with the decay curve of ^99mTc and interpolated with the exponential function. The interpolation function was used to estimate initial %ID/organ and the time-integrated activity concentration (TIAC). Absorbed dose per injected activity for various organs was calculated with the TIAC factors and S-values for a standard person from the OpenDose project. Effective dose was evaluated according to the ICRP 103 recommendations.
We also assumed that the remaining activity from the organs and tumour ends up in the bladder.

[6] = biological target: T2, T7-epitope tagged human SST2 receptor (somatostatin receptor subtype 2) (human, UniProt P30874 1-369); assay: radioligand binding; competition on 5 x 10^5 HEK-SST2 cells in 96-well filter plates; radioligand [^177Lu]Lu-DOTA-TATE (1 nM); competitor 0.004 to 4000 nM; 2 h at 4 °C; TRIS buffer; apparent IC50; settings: one partner purified
T2 construct: somatostatin receptor subtype 2 (SST2), human, expressed in HEK293 cells; also called HEK-SST2 (the cells that express it); source: HEK293 cell line expressing it (HEK-SST2), provided by Professor Stefan Schulz; on intact cells
T2 sequence (P30874 whole entry): as above

[7] = biological target: T2, T7-epitope tagged human SST2 receptor …; assay: radioligand binding; dissociation with competitor: as without, but medium with 2.5 µM of the respective unlabelled TECANT analogue; settings: one partner purified
[8] = biological target: T2, T7-epitope tagged human SST2 receptor …; assay: radioligand binding; dissociation without competitor: radiotracer 0.25 nM bound to HEK-SST2 cells for 2 h at 4 °C, washed, then medium at 37 °C replaced at 10, 20, 30, 60, 120 and 240 min; cell-associated radiotracer left; settings: one partner purified
[9] = athymic nude-Foxn1^nu/Foxn1^+, Biodistribution Heart
[10] = athymic nude-Foxn1^nu/Foxn1^+, Biodistribution Liver
[11] = athymic nude-Foxn1^nu/Foxn1^+, Biodistribution Lung
[12] = athymic nude-Foxn1^nu/Foxn1^+, Biodistribution Pancreas
[13] = athymic nude-Foxn1^nu/Foxn1^+, Biodistribution Spleen
[14] = athymic nude-Foxn1nu/Foxn1+, Biodistribution Adrenals
[15] = athymic nude-Foxn1nu/Foxn1+, Biodistribution Blood
[16] = athymic nude-Foxn1nu/Foxn1+, Biodistribution Bone
[17] = athymic nude-Foxn1nu/Foxn1+, Biodistribution HEK-SST2 (+) tumour uptake
[18] = athymic nude-Foxn1nu/Foxn1+, Biodistribution Intestine
[19] = athymic nude-Foxn1nu/Foxn1+, Biodistribution Kidneys
[20] = athymic nude-Foxn1nu/Foxn1+, Biodistribution Muscle
[21] = athymic nude-Foxn1nu/Foxn1+, Biodistribution Pituitary
[22] = athymic nude-Foxn1nu/Foxn1+, Biodistribution Stomach

tissue uptake at 1 h [1, 9]: 0.71 ± 0.1 %ID/g | tissue uptake at 4 h [1, 9]: 0.24 ± 0.06 %ID/g | tissue uptake at 24 h [1, 9]: 0.05 ± 0.02 %ID/g | tissue uptake at 1 h [1, 10]: 3.13 ± 0.43 %ID/g | tissue uptake at 4 h [1, 10]: 1.9 ± 0.41 %ID/g | tissue uptake at 24 h [1, 10]: 0.6 ± 0.1 %ID/g | tissue uptake at 1 h [1, 11]: 8.94 ± 3.92 %ID/g | tissue uptake at 4 h [1, 11]: 3.07 ± 1.16 %ID/g | tissue uptake at 24 h [1, 11]: 0.26 ± 0.04 %ID/g | tissue uptake at 1 h [1, 12]: 47.8 ± 7.86 %ID/g | tissue uptake at 4 h [1, 12]: 16.9 ± 3.97 %ID/g | tissue uptake at 24 h [1, 12]: 1.08 ± 0.19 %ID/g | tissue uptake at 1 h [1, 13]: 1.3 ± 0.41 %ID/g | tissue uptake at 4 h [1, 13]: 0.57 ± 0.11 %ID/g | tissue uptake at 24 h [1, 13]: 0.2 ± 0.01 %ID/g | tissue uptake at 1 h [1, 14]: 7.11 ± 3.04 %ID/g | tissue uptake at 4 h [1, 14]: 4.36 ± 1.88 %ID/g | tissue uptake at 24 h [1, 14]: 0.85 ± 0.18 %ID/g | tissue uptake at 1 h [1, 15]: 0.79 ± 0.09 %ID/g | tissue uptake at 4 h [1, 15]: 0.23 ± 0.05 %ID/g | tissue uptake at 24 h [1, 15]: 0.03 %ID/g | tissue uptake at 1 h [1, 16]: 1.41 ± 0.77 %ID/g | tissue uptake at 4 h [1, 16]: 0.59 ± 0.23 %ID/g | tissue uptake at 24 h [1, 16]: 0.35 ± 0.07 %ID/g | tissue uptake at 1 h [1, 17]: 21 ± 3.92 %ID/g | tissue uptake at 4 h [1, 17]: 26 ± 1.33 %ID/g | tissue uptake at 24 h [1, 17]: 19 ± 2 %ID/g | tissue uptake at 4 h ([1]; athymic nude-Foxn1nu/Foxn1+, Biodistribution HEK-SST2 (−) tumour uptake): 0.88 ± 0.37 %ID/g | tissue uptake at 1 h [1, 18]: 6.48 ± 4.37 %ID/g | tissue uptake at 4 h [1, 18]: 2.4 ± 1.9 %ID/g | tissue uptake at 24 h [1, 18]: 0.31 ± 0.08 %ID/g | tissue uptake at 1 h [1, 19]: 16.3 ± 1.83 %ID/g | tissue uptake at 4 h [1, 19]: 12.6 ± 2.54 %ID/g | tissue uptake at 24 h [1, 19]: 2.42 ± 0.2 %ID/g | tissue uptake at 1 h [1, 20]: 0.23 ± 0.05 %ID/g | tissue uptake at 4 h [1, 20]: 0.12 ± 0.06 %ID/g | tissue uptake at 24 h [1, 20]: 0.05 ± 0.01 %ID/g | tissue uptake at 1 h [1, 21]: 9.71 ± 2.81 %ID/g | tissue uptake at 4 h [1, 21]: 6.66 ± 3.67 %ID/g | tissue uptake at 24 h [1, 21]: 4.35 ± 2.87 %ID/g | tissue uptake at 1 h [1, 22]: 36.5 ± 7.89 %ID/g | tissue uptake at 4 h [1, 22]: 13.6 ± 3.86 %ID/g | tissue uptake at 24 h [1, 22]: 1.42 ± 0.27 %ID/g | logD [2]: -2.53 ± 0.19 | internalization (internalized fraction) ([3]; 30 min, 37 °C): 4.1 ± 0.1% | internalization (internalized fraction) ([3]; 4 h, 37 °C): 13.4 ± 1.7% | cell surface binding ([3]; 4 h, 37 °C, % of total radioactivity added): 50.7 ± 1.7% | cellular uptake ([3]; at 2 h/37 °C): > 50% | fraction dissociated ([4]; HEK-SST2 cells, at 2 h/37 °C): < 30% | estimated dissociation half-life ([4]; absence of competitor): 98 min | total binding remaining (dissociation assay) ([4]; after 4 h, 37 °C, absence of competitor): 58.8 ± 3.3% | estimated dissociation half-life ([4]; presence of competitor): 19 min | bound fraction still remaining in the cells ([4]; presence of excess of the competitor, 37 °C): 7.9 ± 2.2% | Average total body dose [5]: 3.2 μGy/MBq | Dose Bone [5]: 3.9 μGy/MBq | Dose Muscle [5]: 2.4 μGy/MBq | Dose Red marrow [5]: 3.3 μGy/MBq | Dose Small intestine wall [5]: 1.9 μGy/MBq | biological half-life of clearance of remaining activity (rest of the body) to the bladder [5]: 9.7 h | effective dose [5]: 4.9 mSv
Molecule: C[C@@H](O)[C@@H]1NC(=O)[C@H](CCCCN)NC(=O)[C@@H](Cc2ccc(NC(N)=O)cc2)NC(=O)[C@H](Cc2ccc(O)cc2)NC(=O)[C@H](NC(=O)[C@H](Cc2ccc(Cl)cc2)NC(=O)C(CNCCN)CNCCN)CSSC[C@@H](C(=O)N[C@H](Cc2ccc(O)cc2)C(N)=O)NC1=O [[^99mTc]Tc-TECANT-1, metal not drawn] (X1-[Phe(4-Cl)][dC]Y[dPhe(4-NHCONH2)]KTC[dY]-NH2; disulfide 2-7)

IC50 [6]: 4.47 ± 0.89 nM
B2: ^natRe-TECANT-2 (peptide)
peptide: N4-[Phe(4-Cl)][dC]Y[dW]KTC[dY]-NH2
modifications: disulfide 2-7; also: N4 chelator holds natural rhenium
notes: as TECANT-2: N4-p-Cl-Phe-cyclo(D-Cys-Tyr-D-Trp-Lys-Thr-Cys)-D-Tyr-NH2; F at 1 stands for p-Cl-Phe; surrogate of the Tc complex; also called [^natRe]Re-TECANT-2; Re-complex of TECANT-2; source: synthetic peptide (piChem), Re complex made with tetrabutylammonium-tetrachloro-oxo-rhenate (V)

Continued, molecule first:

B1: TECANT-1 (N4-p-Cl-Phe-cyclo(D-Cys-Tyr-D-Aph(Cbm)-Lys-Thr-Cys)-D-Tyr-NH2) (peptide)
peptide: N4-[Phe(4-Cl)][dC]Y[dPhe(4-NHCONH2)]KTC[dY]-NH2
modifications: disulfide 2-7
SMILES: C[C@@H](O)[C@@H]1NC(=O)[C@H](CCCCN)NC(=O)[C@@H](Cc2ccc(NC(N)=O)cc2)NC(=O)[C@H](Cc2ccc(O)cc2)NC(=O)[C@H](NC(=O)[C@H](Cc2ccc(Cl)cc2)NC(=O)C(CNCCN)CNCCN)CSSC[C@@H](C(=O)N[C@H](Cc2ccc(O)cc2)C(N)=O)NC1=O
notes: printed in three-letter code: N4-p-Cl-Phe-cyclo(D-Cys-Tyr-D-Aph(Cbm)-Lys-Thr-Cys)-D-Tyr-NH2; F at 1 stands for p-Cl-Phe and F at 4 for D-Aph(Cbm), both phenylalanine derivatives; SST2 antagonist based on LM3; non-metallated peptide conjugate; also called N4-LM3; source: synthetic peptide, custom made by piChem
IC50 [6]: 4.14 ± 0.83 nM

B3: [^99mTc]Tc-TECANT-2 (peptide)
peptide: N4-[Phe(4-Cl)][dC]Y[dW]KTC[dY]-NH2
modifications: disulfide 2-7; also: N4 chelator holds 99mTc (dioxo-99mTc(V) complex)
notes: as TECANT-2: N4-p-Cl-Phe-cyclo(D-Cys-Tyr-D-Trp-Lys-Thr-Cys)-D-Tyr-NH2; F at 1 stands for p-Cl-Phe; also called ^99mTc-N4-SS01; source: synthetic peptide (piChem), labelled with ^99mTc, used without further purification
estimated half-life of dissociation [7]: 7.5 min | estimated half-life of dissociation [8]: 40.3 min

B4: [^99mTc]Tc-TECANT-1 (peptide)
peptide: N4-[Phe(4-Cl)][dC]Y[dPhe(4-NHCONH2)]KTC[dY]-NH2
modifications: disulfide 2-7; also: N4 chelator holds 99mTc (dioxo-99mTc(V) complex)
notes: as TECANT-1: N4-p-Cl-Phe-cyclo(D-Cys-Tyr-D-Aph(Cbm)-Lys-Thr-Cys)-D-Tyr-NH2; F at 1 stands for p-Cl-Phe and F at 4 for D-Aph(Cbm); source: synthetic peptide (piChem), labelled with ^99mTc, used without further purification
estimated half-life of dissociation [7]: 19 min | estimated half-life of dissociation [8]: 98 min

B5: ^natRe-TECANT-1 (peptide)
peptide: N4-[Phe(4-Cl)][dC]Y[dPhe(4-NHCONH2)]KTC[dY]-NH2
modifications: disulfide 2-7; also: N4 chelator holds natural rhenium
notes: as TECANT-1: N4-p-Cl-Phe-cyclo(D-Cys-Tyr-D-Aph(Cbm)-Lys-Thr-Cys)-D-Tyr-NH2; F at 1 stands for p-Cl-Phe and F at 4 for D-Aph(Cbm); surrogate of the Tc complex; also called [^natRe]Re-TECANT-1; Re-complex of TECANT-1; source: synthetic peptide (piChem), Re complex made with tetrabutylammonium-tetrachloro-oxo-rhenate (V)
IC50 [6]: 5.01 ± 0.93 nM
